Assay results published in patent US8796303B2, “Imidazo[2,1-G][1,7]naphthyridines for treating respiratory syncytial virus infections” (Biota Scientific Management Pty Ltd., priority 2010, dated 2014).
Converted amounts (≈) assume the structure as drawn. Where two headings read alike, the source gives them in different places.

Columns and labels:
[1] = Aqueous solubility by laser nephelometry; assay type: physicochemical; details: kinetic from dmso stock, 1% DMSO, 30 minute incubation at 25° C., range 1.6-100
Method: Test compounds prepared in DMSO were screened in duplicate over a range of concentrations (1.6-100 ug/mL) in different aqueous media (for example pH2 or pH6.5 buffers which are relevant to the stomach and upper regions of the small intestine). Test compounds were serially diluted in 100% DMSO ranging from 10-0.16 mg/mL. These diluted compounds were then added to test plates (UV Star Griener 96 well plates) containing assay buffers with a further 1:100 dilution keeping a constant 1% DMSO concentration across the plate.

[2] = test system: RSV A2; assay: RSV antiviral CPE assay in HEp2 cells (MTT); assay type: cell-based, respiratory syncytial virus; details: human respiratory syncytial virus, HEp-2, 120 h; HEp2 cells, RSV A2 moi ~0.01, 5 days, CPE by MTT
Method: Compounds of the invention were tested for their antiviral activity against respiratory syncytial virus. Cytopathic effect (CPE) assays were performed essentially as described in the literature (see for example Watanabe et al, 1994, J. Virological Methods, 48:257). Serial dilutions of the test compounds were made in 96 well plates. HEp2 cells (1.0×10^4 cells/well) were infected with RSV at a low multiplicity of infection (e.g. RSV A2 at an moi of ˜0.01) and added to plates to assess antiviral activity. Uninfected HEp2 cells were used to assess compound cytotoxicity. Assays were incubated for 5 days at 37° C. in a 5% CO2 atmosphere. The extent of CPE was determined via metabolism of the vital dye 3-(4,5-dimethylthiaxol-2-yl)-2,5-diphenyltetrazolium bromide (MTT). MTT (1 mg/ml) was added to each well and plates incubated for 2 hours incubation at 37° C. Wells were aspirated, iso-propanol (200 μL) was added and absorbance values read at 540/650 nm. Compound concentrations that inhibited CPE by 50% (EC50) and developed cytotoxicity (CC50) were calculated using non-linear regression analysis. The CC50 values of the compounds tested were determined to be >5000 nM.

[3] = target: T1, hERG ion channel (Homo sapiens, UniProt Q12809); assay: hERG ion channel inhibition (ScreenPatch assay, IonWorks Quattro); assay type: cell-based; details: for IC50: CHO cells stably transfected with hERG; for inhibition at 5 min, 100 µM: human, CHO cells stably transfected with hERG cDNA
T1 construct: expressed in transfected cells; host or cells: CHO cells
T1 sequence (Q12809 whole entry): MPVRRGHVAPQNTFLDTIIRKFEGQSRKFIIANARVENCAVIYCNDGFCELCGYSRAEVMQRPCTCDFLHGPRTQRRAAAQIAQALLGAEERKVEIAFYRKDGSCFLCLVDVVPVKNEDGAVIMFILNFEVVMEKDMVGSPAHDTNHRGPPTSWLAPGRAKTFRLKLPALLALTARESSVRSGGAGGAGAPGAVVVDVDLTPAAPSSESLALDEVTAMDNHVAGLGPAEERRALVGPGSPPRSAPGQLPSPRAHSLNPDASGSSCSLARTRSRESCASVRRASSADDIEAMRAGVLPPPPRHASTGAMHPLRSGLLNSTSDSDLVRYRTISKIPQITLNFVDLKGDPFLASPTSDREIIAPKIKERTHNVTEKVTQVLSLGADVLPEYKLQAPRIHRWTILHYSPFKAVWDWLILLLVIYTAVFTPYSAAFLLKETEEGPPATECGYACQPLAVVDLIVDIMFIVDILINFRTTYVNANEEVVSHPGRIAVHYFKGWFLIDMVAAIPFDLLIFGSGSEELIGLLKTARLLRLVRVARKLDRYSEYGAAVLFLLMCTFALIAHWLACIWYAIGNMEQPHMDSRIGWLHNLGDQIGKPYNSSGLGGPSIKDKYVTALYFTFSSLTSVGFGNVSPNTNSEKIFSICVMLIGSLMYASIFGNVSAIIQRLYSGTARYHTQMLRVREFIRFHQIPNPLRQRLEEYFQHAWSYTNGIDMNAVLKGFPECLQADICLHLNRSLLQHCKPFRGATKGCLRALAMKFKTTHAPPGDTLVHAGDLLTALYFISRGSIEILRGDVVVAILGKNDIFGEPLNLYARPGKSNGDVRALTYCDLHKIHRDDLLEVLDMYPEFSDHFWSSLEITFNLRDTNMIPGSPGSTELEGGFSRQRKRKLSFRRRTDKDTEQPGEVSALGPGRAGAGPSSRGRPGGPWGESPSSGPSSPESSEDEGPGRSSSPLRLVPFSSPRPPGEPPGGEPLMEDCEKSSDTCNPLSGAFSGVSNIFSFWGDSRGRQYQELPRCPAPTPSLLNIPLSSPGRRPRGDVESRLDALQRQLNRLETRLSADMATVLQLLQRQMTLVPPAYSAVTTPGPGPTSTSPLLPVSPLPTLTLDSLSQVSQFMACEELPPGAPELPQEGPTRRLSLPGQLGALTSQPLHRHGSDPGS
Method: The effects of compounds of the invention on the on hERG ion channel can be evaluated using an IonWorks Quattro™ system essentially as described in the literature (see for example Bridgland-Tayor et al, 2006, J. Pharmacological and Toxicological Methods 54: 189).
Four compound concentrations were applied to naïve cells via steel needles of a 48-channel pipettor. Each application consisted of addition of 6 μL of 2× concentrated test compounds to the total of 12 μL of final volume of the extracellular well of the Population Patch Clamp™ (PPC) planar electrode. Duration of exposure to each test compound concentration was at least five minutes.
Intracellular solution was loaded into the intracellular compartment of the PPC planar electrode. Cell suspensions (CHO cells stably transfected with hERG cDNA) are pipetted into the wells of the PPC planar electrode. After establishment of a whole-cell configuration, membrane currents were recorded using patch clamp amplifier in the IonWorks Quattro™ system. Two recordings of the ion channel currents were performed (before and 5 minutes after test compound application). hERG current was measured using a pulse pattern with fixed amplitudes (conditioning prepulse: −80 mV for 25 ms; test pulse +40 mV for 80 ms) from a holding potential of 0 mV. hERG current was measured as a difference between the peak current at 1 ms after the test step to +40 mV and the steady state current at the end of the step to +40 mV.
Data acquisition and analyses was performed using the IonWorks Quattro™ system operation software. The decrease in current amplitude after test compound application was used to calculate the percent block relative to control. A compound is considered to have a low hERG inhibition when the hERG IC50 is >500 times higher than the RSV A2 EC50. The hERG IC50 of the compounds tested was >500 times higher than the corresponding RSV A2 EC50 values.

[4] = pH 2, simulated gastric fluid, pH2 buffer, read-out: Solubility at pH2
[5] = pH 6.5, aqueous buffer, pH6.5 buffer, read-out: Solubility at pH6.5

Cc1nocc1C(=O)N1CCN2C(=O)c3ncccc3C[C@]12c1ccc(Cl)cc1 (single isomer, unassigned) [Compound 2A]
solubility at 30 min [1, 4]: 50 to 100 µg/mL (≈ 122 to 245 µM) | solubility at 30 min [1, 5]: > 100 µg/mL | EC50 [2]: 0.0041 µM | IC50 [3]: 130 µM | inhibition at 5 min, 100 µM [3]: 41.4%

Cc1nocc1C(=O)N1CCN2C(=O)c3ncccc3CC12c1ccc(Cl)cc1 (stereo not shown) [Compound 2, 10a-(4-chlorophenyl)-1-[(3-methyl-1,2-oxazol-4-yl)carbonyl]-2,3,10,10a-tetrahydroimidazo[2,1-g][1,7]naphthyridin-5(1H)-one]
solubility at 30 min [1, 4]: 50 to 100 µg/mL (≈ 122 to 245 µM) | solubility at 30 min [1, 5]: > 100 µg/mL | EC50 [2]: 0.0052 µM | IC50 [3]: 99.2 µM | inhibition at 5 min, 100 µM [3]: 50.2%
